One sequence from patent publication US20120270928A1, “MICRORNA COMPOUNDS AND METHODS FOR MODULATING MIR-21 ACTIVITY” (REGULUS THERAPEUTICS INC., priority 2011, published 2012) can be followed below.

Data set [1] concerns ischemia reperfusion injury/nephrectomy (IR/Nx) model. As to the kind of experiment: Ischemia reperfusion injury/nephrectomy (IR/Nx) model: urinary albumin to creatinine ratio. It is filed as in vivo, mouse. The source says:
An ischemia reperfusion injury/nephrectomy (IR/Nx) model is created in the mouse through temporary unilateral clamping of an artery in one kidney, which leads to tubule damage, inflammation, and fibrosis, followed by removal of the second kidney at a later timepoint. In this model, the acute kidney dysfunction phase is useful to test candidate agents for the treatment of acute kidney injury (i.e. up to about the first 5 days), and the later phases of kidney dysfunction are useful to model chronic fibrosis (i.e. after about the first 5 days).
Unilateral IR was induced for a period of 30 minutes. Treatment groups were as follows: sham IR procedure; IR with PBS administered subcutaneously; IR with mismatched control 25109 administered subcutaneously at a dose of 20 mg/kg; IR with anti-miR-21 compound 25070 administered subcutaneously at a dose of 20 mg/kg; and IR with anti-miR-21 compound 25923 administered subcutaneously at a dose of 20 mg/kg. PBS or anti-miR was administered on days 2, 3, 4, and 8 following IR. On day 8, the healthy kidney was removed by nephrectomy from each animal, and animals were sacrificed on day 9. Just prior to sacrifice, urine was collected by direct bladder puncture.
Urinary albumin to creatinine ratio was measured in the urine from each mouse. […] The geometric mean of the albumin to creatinine ratio in each group of mice was 16 μgAlb/mgCr (nephrectomy-only control), 127 μgAlb/mgCr (IR/Nx, PBS control), 140 μgAlb/mgCr (IR/Nx, 25109 control), 40 μgAlb/mgCr (IR/Nx, 25070), and 31 μgAlb/mgCr (IR/Nx, 25923). Blood urea nitrogen and serum creatinine levels were similar across all IR/Nx mice, and were elevated relative to nephrectomy-only control mice (data not shown).

The nature of data set [2]: Ex vivo liver homogenate stability assay (HPLC-TOF MS). Conditions: 5 μM oligonucleotide in liver homogenate (50 mg tissue per ml), 24 hours at 37° C.
A short description of data set [3]: In vivo stability of compound in kidney tissue after administration to mice. Conditions: 7 days post-injection.

For “AECSATCSAGTCSTGAUSAAGCSTAE (ACATCAGTCTGATAAGCTA; modified nucleosides, phosphorothioate linkages, chemistry not fully specified) [Compound 25070]”, the “reduction in urinary albumin to creatinine ratio (significance)” value in data set [1] (20 mg/kg subcutaneously on days 2, 3, 4, and 8) is on record as “statistically significant reductions”. Moreover, the “geometric mean of the urinary albumin to creatinine ratio” value in data set [1] (20 mg/kg subcutaneously on days 2, 3, 4, and 8, urine on day 9) amounted to 40 μgAlb/mgCr. In data set [2], the “compound lacking the 3′-terminal nucleoside” value is recorded as “about 27%” and the “compound present as the full-length compound” value was “about 58%”. Moreover, the “compound present in kidney tissue lacking the 3′-terminal nucleoside” value in data set [3] is “about 50%”.
